The record followed here is patent publication US20020045641A1, “Multiple heteroatom containing heterocyclic ring compounds substituted with carboxylic acids and isosteres thereof” (priority 1998, published 2002).

This assay deals with dopaminergic neurons. Kind of assay: MPTP Model of Parkinson's Disease in Mice. The format is in vivo. Particulars: recovery of TH-stained dopaminergic neurons in striatum; MPTP 30 mg/kg i.p. 5 days; test compound 4 mg/kg s.c., concurrent dosing paradigm. On the procedure: MPTP lesioning of dopaminergic neurons in mice is used as an animal model of Parkinson's Disease. Four week old male CD1 white mice are dosed i.p. with 30 mg/kg of MPTP for 5 days. Test compounds (4 mg/kg), or vehicle, are administered s.c. along with the MPTP for 5 days, as well as for an additional […] following cessation of MPTP treatment. At 18 days following MPTP treatment, the animals are sacrificed and the striata dissected and perfusion-fixed. Immunostaining is performed on saggital and coronal brain sections using anti-tyrosine hydroxylase […] to quantitate survival and recovery of dopaminergic neurons. In animals treated with MPTP and vehicle, a substantial loss of functional dopaminergic terminals is observed as compared to non-lesioned animals. Lesioned animals receiving test compounds show a significant recovery of TH-stained dopaminergic neurons. This model presents quantitation for the recovery of TH-positive dopaminergic neurons in the striatum of animals receiving the compounds of the present invention. […]
Percent striatal innervation density was quantitated in brain sections with an anti-tyrosine hydroxylase immunoglobulin, which is indicative of functional dopaminergic neurons. […]

Regarding `CCC(C)(C)C(=O)C(=O)N1CCS[C@H]1C(=O)O` [Compound L, (2S) -1-(3,3-dimethyl-1,2-dioxopentyl) -3-thiazolidine-2-carboxylic acid], the “% Recovery” value was 14.0%.
